Results: patent US6875746B1, “Anticancer anthraquinones and method of use thereof” (Board of Trustees of Michigan State University, priority 2002, dated 2005)
≈ marks a conversion by molar mass, not a printed value. Entries after “also recorded” stand apart in the source; their conditions may differ. Where two headings read alike, the source gives them in different places.

Key:
SF-268 (CNS) = assay: cancer cell growth inhibition assay (sulforhodamine B), SF-268; format: cell-based; conditions: Homo sapiens, read-out: GI50 ± SE, SF-268 (CNS)
Procedure: (§1) The compounds were tested for their activity against breast, central nervous system (CNS), colon, and lung human tumor cell lines. The breast (MCF-7), CNS(SF-268), and lung (NCI-H460) cultures were purchased from the National Cancer Institute (Bethesda, Md.) while the colon culture (HCT-116) was purchased from the American Type Culture Collection (Arlington, Va.). All cell lines were maintained in a humidified chamber at 37° C. with 5% CO2 in RPMI-1640 medium supplemented with 10% fetal bovine serum, penicillin (1 unit/100 mL), and streptomycin (1 μg/100 mL). All cell lines were sub-cultured according to their individual growth profiles in order to ensure exponential growth throughout the experiments. Breast (10,000 cells/well), CNS (15,000 cells/well), colon (7,500 cells/well), and lung (7,500 cells/well) cancer cells were aliquoted (100 μL) into 96-well plates and allowed to grow for 24 hours before the addition of the test compounds to the media. The compounds were dissolved in DMSO and diluted in sterile media as necessary to obtain the appropriate concentration. […] Test compounds, standards, and DMSO control were incubated for 48 hours, after which the assay was terminated via the addition of cold trichloroacetic acid. The plates were incubated for one hour at 4° C., washed with deionized water (five times), and air-dried. A 100 μL aliquot of 0.4% sulforhodamine B stain in 1% acetic acid was added to each well and the plates were incubated for 30 minutes at room temperature. Following incubation, the wells were rinsed with 1% acetic acid (five times) and the bound stain was dissolved in 100 μL of 10 mM TRIZMA base. The plates were shaken for five minutes on a gyrorotary shaker after which the absorbance of each well was recorded with an automated microplate reader (model EL800, Bio-Tek Instruments, Inc., Winooski, Vt.) at 515 nm. Three independent experiments were performed in triplicate using at least five drug concentrations inclusive of the 50% growth inhibitory concentration. Results are expressed as the concentration of compound required to inhibit cellular growth 50% (GI50) ±SE.

MCF-7 (breast) = assay: cancer cell growth inhibition assay (sulforhodamine B), MCF-7; format: cell-based; conditions: Homo sapiens, MCF7, read-out: GI50 ± SE, MCF-7 (breast)
Procedure: as §1

NCI-H460 (lung) = assay: cancer cell growth inhibition assay (sulforhodamine B), NCI-H460; format: cell-based; conditions: Homo sapiens, read-out: GI50 ± SE, NCI-H460 (lung)
Procedure: as §1

HCT-116 (colon) = assay: cancer cell growth inhibition assay (sulforhodamine B), HCT-116; format: cell-based; conditions: Homo sapiens, read-out: GI50 ± SE, HCT-116 (colon)
Procedure: as §1

[1] = test system: nasal (KBMRI) tumor cell line; conditions: Li and McLaughlin, J. Nat. Prod. 52: 660-662 (1989); cited from earlier work
[2] = test system: colon (HT-29) tumor cell line; conditions: Li and McLaughlin, J. Nat. Prod. 52: 660-662 (1989); cited from earlier work
[3] = test system: SF-268 human CNS glioblastoma cells; assay: MTT cell viability assay, SF-268; format: cell-based; conditions: at GI50 concentration, 48 hours, FIG. 5; compared with 8, 4, 6 and mixture 1a and 2a
Procedure: (§2) In this example, compounds 1, 1a, 2, 2a, 3, 4, 6, and 8 were tested for cell toxicity using an 3-[4,5-dimethylthiazol-2-yl]-2,5-diphenyltetrazolium bromide (MTT) cell viability assay. The assay monitors the conversion of MTT to the dye, formazan, by viable cells. The formazan crystals form a precipitate which is dissolved in DMSO and analyzed by spectroscopy. MTT is not converted to formazan by dead cells. Therefore, the amount of dye detected is inversely related to the toxicity of the compound being tested.
(§3) The cancer cells used were HCT 116 (colon carcinoma, human, batch # F-11276), SF-268 (CNS, glioblastoma, human, 0503138), NCI-H460 (lung, large cell carcinoma, human, 503473), and MCF-7 (breast, mammary adenocarcinoma, human, 0501975) were procured from NCI, NIH.
(§4) The cells were grown in RPMI 1640 media supplemented with 10% fetal bovine serum and maintained at 37° C. in a humidified atmosphere of 5% CO2. Cells were seeded in 96 well plates at a density of 2000 cells per well. […] To each well, 200 μL of DMSO was added immediately, shaken for 5 min, and optical density of each well was recorded at 570 nm using Universal Microplate Reader. […]
(§5) The average optical densities of three wells for each sample tested and of DMSO control were calculated. The average optical densities of samples and of DMSO control from the replicates were then calculated. […]

[4] = test system: lung (A-549) tumor cell line; conditions: Li and McLaughlin, J. Nat. Prod. 52: 660-662 (1989); cited from earlier work
[5] = test system: breast (MCF-7), CNS (SF-268), colon (HCT-116) and lung (NCI-H460) human tumor cell lines; assay: cancer cell growth inhibition assay, statements on the four cell lines together; format: cell-based; conditions: MCF-7, SF-268, HCT-116, NCI-H460
Procedure: as §1, with “Results are expressed as the concentration of compound required to inhibit cellular growth 50% (GI50) ±SE.” left out

[6] = test system: HCT 116 human colon carcinoma cells; assay: MTT cell viability assay, HCT 116; format: cell-based; conditions: at GI50 concentration, 48 hours, FIG. 4
Procedure: as §2, §3, §4, §5

[7] = test system: NCI-H460 human large cell carcinoma cells; assay: MTT cell viability assay, NCI-H460; format: cell-based; conditions: at GI50 concentration, 48 hours, FIG. 6
Procedure: as §2, §3, §4, §5

[8] = adriamycin values expressed in μM (footnote a), 48 hours
[9] = 48 hours incubation, sulforhodamine B stain

Row | SMILES | GI50 (SF-268 (CNS); [8]) | GI50 (MCF-7 (breast); [8]) | GI50 (NCI-H460 (lung); [8]) | GI50 (HCT-116 (colon); [8]) | GI50 (SF-268 (CNS); [9]) | ED50, nasal (KBMRI) [1] | ED50, colon (HT-29) [2] | GI50 (MCF-7 (breast); [9]) | GI50 (NCI-H460 (lung); [9]) | GI50 (HCT-116 (colon); [9]) | toxicity in MTT assay, SF-268 (CNS cancer) [3] | ED50, lung (A-549) [4] | activity against all four cancer cell lines (in words) [5] | toxicity in MTT assay, HCT 116 (Colon cancer) [6] | toxicity in MTT assay, NCI H460 (Lung cancer) [7]
1 | COc1cccc2c1C(=O)c1c(O)c3c(c(O)c1C2=O)C[C@@](O)(C(=O)CO)C[C@@H]3O[C@H]1C[C@H](N)[C@H](O)[C@H](C)O1 [adriamycin, reference compound] | 1.9 ± 0.7 µM | 1.7 ± 0.2 µM | 1.7 ± 0.4 µM | 2.1 ± 0.6 µM | – | – | – | – | – | – | – | – | – | – | –
2 | Cc1cc2c(c(O)c1O)C(=O)c1c(O)cccc1C2=O [compound 3, 1,2,8-trihydroxy-3-methyl anthraquinone] | – | – | – | – | 2.4 ± 1.8 µg/mL | 5.7 µg/mL (≈ 21.1 µM) | 2.8 µg/mL (≈ 10.4 µM) | 6.5 ± 1.2 µg/mL | 6.3 ± 0.8 µg/mL | 6.3 ± 0.8 µg/mL | higher toxicity | 3.1 µg/mL (≈ 11.5 µM) | consistent activity | higher toxicity than the rest of the anthraquinones | –
3 | O=C1c2cccc(O)c2C(=O)c2c1cc(CO)c(O)c2O [compound 6, 1,2,8-trihydroxy-3-hydroxymethyl anthraquinone] | – | – | – | – | 3.8 ± 0.7 µg/mL | – | – | 2.8 ± 0.3 µg/mL | 7.3 ± 0.7 µg/mL | 5 ± 0.3 µg/mL | – | – | consistent activity; also recorded: concentrations similar to that of compound 3 | – | –
4 | O=C(O)c1cc(O)c2c(c1)C(=O)c1cccc(O)c1C2=O [compound 8, 1,8-dihydroxy-3-carboxy anthraquinone] | – | – | – | – | 16.3 ± 1.8 µg/mL | – | – | 17.2 ± 0.8 µg/mL | 15.4 ± 1.7 µg/mL | 21.1 ± 1.8 µg/mL | – | – | moderate activity | – | lest toxic
